Experiments:
total human CD4+ T-cells = assay: Th17 polarization of total CD4+ T-cells, cytokine ELISA; format: cell-based; details: for IL-17 concentration in Th17 cell supernatants: 72 h
Procedure: (§1) Total, naive and memory CD4^+ T cells were isolated from Peripheral blood mononuclear cells (PBMCs) from healthy volunteers by density gradient centrifugation using Ficoll Paque (GE). Total, naive or memory CD4^+ T-cells were prepared by immunomagnetic separation using the respective CD4^+ T-cell enrichment kits resulting in untouched highly purified subsets (EasySep™, Stem Cell). Purity was assessed by flow cytometry and was between 95 and 98% for the total CD4^+ T-cells. The purity of naive (CD45RA^+CD45RO^−) and memory (CD45RA^−CD45RO^+) CD4^+T-cells ranged between 95 and 98%, respectively. For T-cell stimulation experiments, cells were treated as previously published ([44]). Briefly, T-cells were stimulated with plate-bound monoclonal antibodies against CD3 (1 μg/ml, clone OKT-3, BioXcell) and CD28 (1 μg/ml, clone CD28.2, BioLegend). For Th17 polarization assays, IL-6 (20 ng/ml), TGF-β1 (5 ng/ml), IL-1β (10 ng/ml), and IL-23 (10 ng/ml) were added. For Th1 polarization assays, IL-12 (10 ng/ml) and anti-IL-4 antibody (5 μg/ml), for Th2 polarizations, IL-4 (10 ng/ml) and anti-IFN-γ antibody (5 μg/ml) were added. For Th0 polarization assays, cells were only stimulated with CD3 and CD28 antibodies. Supernatants were collected after 3 or 7 days of incubation for total or naive/memory CD4^+ T-cell polarizations, respectively. Cytokine concentrations were quantified by ELISA according to the manufacturer's instructions (eBioscience or BioLegend).

[1] = tested on: CD4+ CD25 high gated PBMCs; assay: FoxP3 expression in CD4+ CD25 high T-cells under Treg inducing conditions; format: cell-based, human; details: 96 h Treg inducing conditions, vs DMSO
Procedure: PBMCs from freshly drawn heparinized blood originating from healthy volunteers were isolated by density gradient centrifugation using Ficoll Paque (GE). PBMCs (1 × 10^5/well) were incubated for 96 h in the presence of DMSO or Cpd A (1 μM) together with anti-CD3 (3 ng/ml, clone OKT-3, BioXcell), anti-CD28 (30 ng/ml, clone CD28.2, BioLegend), TGF-β1 (0.2 ng/ml, Biolegend), IL-2 (15 ng/ml, Biolegend), anti-IFN-γ antibody (5 μg/ml, Biolegend), and anti-IL-4 (5 μg/ml, Biolegend). Cells were prepared for CD4/CD25 surface staining, followed by intracellular FoxP3 staining.
For FoxP3 detection within the CD4^+ CD25 high T-cells, surface staining was performed for 20 min with FITC labeled CD4 antibody and anti-CD25 BV421 antibody (BD Bioscience). After surface staining, the cells were washed, fixed and permeabilized according to the manufacturer's instructions (eBioscience) prior to intracellular staining with APC labeled FoxP3 antibody (eBioscience). Data were acquired on a LSR Fortessa (BD Bioscience) and analyzed using FlowJo software (Tree Star). FoxP3 expression was determined in gated CD4^+ CD25 high T-cells that were treated with DMSO or with Cpd A.

[2] = tested on: memory human CD4+ T-cells; assay: Th17 polarization of memory CD4+ T-cells, IL-17A ELISA; format: cell-based; details: T-cell, 168 h, Th17 differentiation 7 days, read-out: IC50, IL-17A secretion
Procedure: as §1, with “Supernatants were collected after 3 or 7 days of incubation for total or naive/memory CD4^+ T-cell polarizations, respectively.” left out

[3] = tested on: T1, RORγt binding to RORE DNA binding sites; assay: RORE oligonucleotide pull-down assay; format: cell-based, human; details: 10 μM, HUT78-RORγt nuclear extracts, anti-CD3/PMA 2 h, vs DMSO
T1 construct: HUT78 T-cells stably expressing full-length eGFP-RORγt; eGFP; expressed in transfected cells
Procedure: In order to detect RORγt binding to its cognate DNA binding sites, biotinylated oligonucleotide probes containing putative 4 × RORE or mutated-RORE DNA sequences were synthesized (Microsynth, Switzerland) and annealed in order to form a double stranded DNA probe. The probes contained the following sequences (where the bold nucleotides represent a putative RORγt binding site or the mutated form of the RORE):
Nuclear extracts originating from HUT78 cells stably expressing eGFP-RORγt were prepared as previously described ([45]). Briefly, cells were incubated with Cpd A (10 μM final concentration) for 0.5 h followed by a 2 h-stimulation period using CD3 antibody (2.5 μg/ml, clone OKT-3, BioXcell) plus PMA (8 ng/ml, Sigma). Nuclear lysates were generated using a nuclear extraction kit (Pierce, Thermo scientific), followed by a pre-clearing step with streptavidin-sepharose beads (GE healthcare Amersham) for 1 h at 4°C. The supernatants were incubated with biotinylated double-stranded RORE or with mutated RORE probes (10 nM final concentration) for 1 h at 4°C, followed by addition of a 50% slurry of streptavidin-sepharose beads for 1 h. The bound complexes were washed five times with 1 ml buffer consisting of 50 mM Tris-HCl, 1 mM EDTA, 1% NP-40, 150 mM NaCl and protease inhibitors (Roche). […]

naive human CD4+ T-cells = assay: Th17 polarization of naive CD4+ T-cells, IL-17A ELISA; format: cell-based; details: T-cell, 168 h, Th17 differentiation 7 days, read-out: IC50, IL-17A secretion
Procedure: as §1, with “Supernatants were collected after 3 or 7 days of incubation for total or naive/memory CD4^+ T-cell polarizations, respectively.” left out

RORγt = assay: Binding of transcription/co-factors to RORγt or RORE oligonucleotides after treatment (data not shown); format: cell-based
RORβ = tested on: T2, RORβ; assay: RORβ LBD-GAL4 reporter gene assay in Jurkat cells; format: cell-based, human
T2 construct: RORα and RORβ we performed LBD-GAL4 reporter gene assays; expressed in transfected cells; host or cells: Jurkat cells stably carrying pGL4.35
Procedure: Selectivity against other ROR family members was assessed in a GAL4 reporter gene assay as previously described ([44]). Briefly, Jurkat cells stably expressing the pGL4.35 plasmid (Promega) containing nine GAL4 binding sites inducing the transcription of the luciferase reporter gene were transiently transfected with the human RORα, RORβ or RORγt-LBD/GAL4-DBD constructs. After 24 h post-transfection, cells were incubated with Cpd A for an additional 24 h before luciferase activity was determined using an EnVision Multilabel Plate Reader (Perkin Elmer).

IC50 (total human CD4+ T-cells; Homo sapiens, T-cell, total CD4+ T-cells, Th17 polarization 72 h, ELISA, read-out: IC50, IL-17A secretion): 39 nM
IC50 [2]: 27 nM
RORγt association with the ROR elements [3]: still intact
IC50 (naive human CD4+ T-cells): 15 nM
binding of TAZ, steroid receptor co-activators, p300, HIF-1α, Runx to RORγt or RORE oligonucleotides (RORγt): remained intact
SMILES: Cc1ccc(C(=O)Nc2cn3ccnc3c(CN3CCN(c4noc(C(C)(C)C)n4)[C@@H](C)C3)c2C)cn1 [Cpd A, (S)-N-(8-((4-(5-(tert-butyl)-1,2,4-oxadiazol-3-yl)-3-methylpiperazin-1-yl)methyl)-7-methylimidazo[1,2-a]pyridin-6-yl)-6-methylnicotinamide]
IL-17 concentration in Th17 cell supernatants (total human CD4+ T-cells; 0.13 nM (pharmacologically inactive concentration)): 600 pg/mL
IL-17 concentration in Th17 cell supernatants (total human CD4+ T-cells; 10 μM (active concentration)): 150 pg/mL
TNF-α concentration in Th17 cell supernatants (total human CD4+ T-cells; similar at low or high compound concentrations): 4 ng/mL
FoxP3 expression [1]: did not result in altered FoxP3 expression
activity toward RORβ (LBD-GAL4 reporter) (RORβ): lacked activity
